Measured values: ChEMBL document CHEMBL1938228, “Design and synthesis of potent carboxylic acid DGAT1 inhibitors with high cell permeability” (Bioorg Med Chem Lett, 2012)

Columns and labels:
[1] = system: Salmonella typhimurium; assay: Induction of mutagenesis in Salmonella Typhimurium TA98 assessed as increase in mutation frequency in presence of liver S9 fraction relative to untreated control; type: toxicity, organism-based; settings: salmonella enterica subsp. enterica serovar typhimurium
[2] = Aqueous solubility of the compound; type: physicochemical
[3] = Lipophilicity, log D of the compound; type: physicochemical; settings: octanol/water

solubility [2] [µg/mL] | logD [3] | SMILES | fold change (FC) [1]
– | – | CC(C)(COc1ccc(-c2ccc(N)cc2)cc1)C(=O)O | 24
– | – | CC(C)(COc1ccc(-c2ccc(N)cc2)cn1)C(=O)O | 2.6
> 1000 | -0.53 | CC(Sc1nnc(-c2ccc(NC(=O)c3ccccc3)cc2)n1C)C(=O)O (racemic) | –
